The text below walks through data of publication PMC7017090, “Repaglinide Silences the FOXO3/Lumican Axis and Represses the Associated Metastatic Potential of Neuronal Cancer Cells” (Cells, 2019).

The target in one series is FOXO3 (Homo sapiens, UniProt O43524). Nature of the series: fluorescence polarization displacement of IRE-FAM oligonucleotide from recombinant FOXO3-DBD (Ki calculated from IC50 […]); supported by FAM-EMSA. It is filed as binding.
In another series the target is FOXO3-DBD (human, UniProt O43524 156-269). Description: EMSA; 1 uM protein, 100 nM DNA; 'high affinity'; Not stated; FPA and FAM-EMSA as described in ref 24. As to conditions: protein: recombinant; blunt.
FOXO3-DBD, sequence (O43524 156-269): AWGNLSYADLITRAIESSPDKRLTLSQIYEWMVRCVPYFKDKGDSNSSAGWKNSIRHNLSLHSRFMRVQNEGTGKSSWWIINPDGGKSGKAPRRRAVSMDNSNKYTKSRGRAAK

FOXO3, sequence (O43524 156-269): as above

For `CCOc1cc(CC(=O)N[C@@H](CC(C)C)c2ccccc2N2CCCCC2)ccc1C(=O)O` [RPG, repaglinide], the Ki – broadly, a measure of affinity in units of concentration, obtained from inhibition or displacement – at FOXO3 was 24.9 µM.

B1: FoxP3 oligonucleotide (FAM) (dsDNA)
DNA 1: AGCAAAGTTGTTTTTGATAATG
DNA 2: CATTATCAAAAACAACTTTGCT
As to B1, the binding result in the series with FOXO3-DBD is “binds”.
